From article PMC7565389, “Natural Potent NAAA Inhibitor Atractylodin Counteracts LPS-Induced Microglial Activation” (Frontiers in Pharmacology, 2020)
Read-outs that look alike come from different tables or passages of the source. Values belong to the molecule of their own block, whether it stands above or below them.

Legend:
[1] = biological target: T1, recombinant human NAAA protein (Homo sapiens, UniProt Q02083); experiment: Fluorometric NAAA activity assay (PAMCA hydrolysis); assay type: biochemical
T1 construct: purchased R&D Systems (Shanghai, China)
T1 sequence (Q02083 29-359): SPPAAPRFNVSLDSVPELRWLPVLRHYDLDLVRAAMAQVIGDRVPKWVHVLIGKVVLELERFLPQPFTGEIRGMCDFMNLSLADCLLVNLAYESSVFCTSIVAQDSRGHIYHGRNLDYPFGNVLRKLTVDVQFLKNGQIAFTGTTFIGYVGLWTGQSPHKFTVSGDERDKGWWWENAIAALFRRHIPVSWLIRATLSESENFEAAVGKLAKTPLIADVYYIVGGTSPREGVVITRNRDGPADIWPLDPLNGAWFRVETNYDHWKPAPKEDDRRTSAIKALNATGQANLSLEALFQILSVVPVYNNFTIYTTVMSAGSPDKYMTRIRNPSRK
Description: (§1) Fluorometric NAAA activity measurement was used to evaluate the natural products inhibitory potency towards NAAA as previously reported with minor modifications ([West et al., 2012a]; [West et al., 2012b]). Briefly, in our initial screening, recombinant human NAAA protein was diluted in NAAA buffer (3 mM DTT, 0.1% Triton X-100, 0.05% BSA, 150 mM NaCl, pH 4.5) to 0.25 µg/ml and then 20 µL were transferred to a 96-well half-volume black plate followed by the addition of 2 µL of DMSO-diluted compounds at a final concentration of 50 µM. After shaking for 10 min on a shaking plate, 28 µL of the N-(4-methylcoumarin)-palmitamide (PAMCA) substrate in assay buffer (final concentration: 25 µM) were added, and the reaction was allowed to proceed at 37 °C for 30 min, then enzyme activity was monitored at a wavelength of 460 nm (excitation wavelength: 360 nm) on a multimode reader (Mithras LB 943, Berthold, Germany). Compounds showing > 50% inhibition were subjected to a series of two-fold dilutions for IC50 testing.
Although several compounds have been discovered as NAAA inhibitors, reports on natural derivatives are limited. Here, we constructed a small library of 465 natural compounds consisting of alkaloids, flavonoids, coumarins, terpenoids, polyacetylenes, and aliphatics for activity screening. First, we established a high-throughput screening system for NAAA inhibitors using the fluorogenic compound N-(4-methyl coumarin) palmitamide (PAMCA) as hydrolyzed substrate ([West et al., 2012b]). PAMCA was metabolized to the fluorescent 7-amino-4-methyl coumarin (AMC) and palmitic acid by NAAA at pH 4.5 ( Figure 1A ). […] To further confirm the effectiveness of the screening system, another two reported potent NAAA inhibitors, F96 and AM9053, were tested.

LPS-induced BV-2 cells [2] = experiment: Cellular PEA and OEA levels in LPS-induced BV-2 cells (HPLC-MS/MS); assay type: cell-based; conditions: 10 μM, LPS 6 h, compared to LPS-treated control
Description: (§2) The microglia cell line BV-2 was cultured in DMEM medium containing 10% fetal bovine serum and antibiotics (100 U/ml penicillin, 100 µg/ml streptomycin) and maintained in a humidified 5% CO2 incubator at 37°C. For the experiment, cells were seeded overnight into a 24-well plate for the cytokine assay or into 100-mm dishes for NAE extraction and quantification. The next day, the cells were incubated with fresh culture medium containing the indicated concentration of atractylodin for 0.5 h and following lipopolysaccharide (LPS) treatment (1 μg/ml). Cells incubated with vehicle only (DMSO, 0.1%) were used as control.
FAEs were extracted from BV-2 cells as previously reported ([Yang et al., 2015]). […] An ABI 3200 Q-Trap mass spectrometer (Applied Biosystems, Concord, Canada equipped with a 1100-LC system (Agilent, Shanghai, China) was used in this experiment. The precursor/product ion transitions in multiple reaction monitoring mode (MRM) were used for mass analysis and quantitation. The molecular ions were monitored at m/z 300.2/62.0 for PEA, m/z 326.1/62.0 for OEA, m/z 348.00/62.00 for AEA, m/z 379.10/287.10 for 2-AG, and m/z 313.1/62.0 for C17:1 FAE.
To further investigate the contribution of endogenous fatty acid ethanolamide to the anti-inflammatory effect of atractylodin, cellular PEA and OEA levels were measured by HPLC-MS/MS analysis. […]

[3] = test system: LPS-induced BV-2 microglial cells; experiment: Nitrite production in LPS-induced BV-2 cells (Griess reagent); assay type: cell-based
Description: as §2
The concentration of nitrite in the culture medium was determined using a Griess reagent kit that reflected the amount of NO released by cultured cells. Culture supernatants (75 μl) were reacted with an equal volume of Griess reagent kit for 30 min at room temperature, and the absorbance of the diazonium compound at a wavelength of 560 nm was measured.
The cytotoxicity of the NAAA inhibitors on BV-2 cells was assessed using CCK-8. […] NAAA is highly expressed in immune cells, including tissue macrophages, monocytes, and microglia. […] The concentrations of nitrite were monitored using the Griess reagent kit.

LPS-induced BV-2 cells [4] = experiment: Pro-inflammatory cytokine release in LPS-induced BV-2 cells (ELISA); assay type: cell-based; conditions: culture supernatant
Description: as §2
LPS was used to activate BV-2 cells to further assess the anti-inflammatory effects of atractylodin. […] Moreover, the ability to inhibit these inflammatory factors was stronger than the positive control drug dexamethasone (Dex) at a concentration of 10 µM ( Figure 6 ).

NAAA = conditions: read-out: IC50, NAAA inhibition (reported), cited from earlier work
[5] = substrate: CCCCCCCCCCCCCCCC(=O)Nc1ccc2c(C)cc(=O)oc2c1; experiment: Fluorometric NAAA activity assay (PAMCA hydrolysis); assay type: biochemical, human; conditions: other: pH 4.5, 37.0 °C
Description: as §1
Although several compounds have been discovered as NAAA inhibitors, reports on natural derivatives are limited. Here, we constructed a small library of 465 natural compounds consisting of alkaloids, flavonoids, coumarins, terpenoids, polyacetylenes, and aliphatics for activity screening. […]

[6] = recombinant human NAAA, PAMCA 25 µM, pH 4.5, 37 °C 30 min, read-out: IC50, NAAA inhibition

Molecule: COc1ccc2cc1Oc1ccc(cc1)CC1c3cc(c(OC)cc3CCN1C)Oc1c(OC)c(OC)cc3c1C(C2)N(C)CC3 [D-tetrandrine]
IC50 [1, 6]: 52.9 ± 3.05 µM

IC50 [1, 6]: 37.8 ± 4.04 µM
Molecule: O=c1cc(-c2ccc(O)c(-c3c(O)cc(O)c4c(=O)cc(-c5ccc(O)cc5)oc34)c2)oc2cc(O)cc(O)c12 [amentoflavone]

IC50 [1, 6]: 23.8 ± 1.06 µM
Molecule: COc1cc(C[C@H](C)[C@H](C)Cc2ccc3c(c2)OCO3)ccc1O [anwuligan]

Molecule: C/C=C/C#CC#C/C=C/c1ccco1 [atractylodin]
cellular OEA level (LPS-induced BV-2 cells [2]): significantly increased
cellular PEA level (LPS-induced BV-2 cells [2]): significantly increased
decrease of LPS-induced nitrite production ([3]; 10 µM, 30 min pre-incubation, LPS 24 h, compared with vehicle group): 68.21%
inhibition of nitrite generation ([3]; 1–10 µM, LPS-induced BV-2 cells): in a dose-dependent manner
inhibition of IL-1β production (LPS-induced BV-2 cells [4]): in a dose-dependent manner
inhibition of IL-6 production (LPS-induced BV-2 cells [4]): in a dose-dependent manner
inhibition of TNF-α production (LPS-induced BV-2 cells [4]): in a dose-dependent manner
IC50 [1]: 2.81 µM
time course of NAAA inhibition (pre-incubation with hNAAA) [1]: rapid and unaffected by longer pre-incubation
mechanism of NAAA inhibition (Lineweaver-Burk plot) ([1]; atractylodin 3 µM): competitive
NAAA activity after dialysis of the NAAA-inhibitor mixture ([1]; dialysis in PBS buffer): fully recovered

Molecule: CC(=O)Oc1cccc2c1C(=O)c1c(OC(C)=O)cc(C(=O)O)cc1C2=O [diacerein]
IC50 (NAAA; ref Petrosino et al., 2015): 7.2 µM

Molecule: C\C(C=C=C1C(C)(C)C[C@H](O)C[C@@]1(C)O)=C/C=C/C(C)=C/C=C/C=C(C)/C=C/C=C(\C)C(=O)C[C@@]12O[C@]1(C)C[C@@H](O)CC2(C)C [fucoxanthinol]
IC50 (NAAA; ref Jin et al., 2020): 12.8 µM

Molecule: c1cc2c(cc1[C@H]1OC[C@H]3[C@@H]1CO[C@@H]3c1ccc3c(c1)OCO3)OCO2 [sesamin]
IC50 [1, 6]: 30.2 ± 2.09 µM

B1: recombinant human NAAA protein (Homo sapiens) (protein)
chain: T1 sequence (Q02083 29-359)
notes: purchased R&D Systems (Shanghai, China)
Km [5]: 17.92 ± 3.54 µM
